Measured values: article PMC4549042, “Targeting procaspase-3 with WF-208, a novel PAC-1 derivative, causes selective cancer cell apoptosis” (Journal of Cellular and Molecular Medicine, 2015)
Like-named read-outs stand apart in the source and are kept apart here.

Columns and labels:
HL-60 cell line = assay: MTT cell viability assay, HL-60; format: cell-based; conditions: Homo sapiens, 72 hrs
Protocol: (§1) The cell viability effects of the tested compounds were determined by MTT assay. Cells (1 × 10^4 cells/100 μl/well) were seeded into 96-well culture plates. After overnight incubation, cells were treated with various concentrations of compounds for 72 hrs. Subsequently, 10 μl MTT solution (2.5 mg/ml in PBS) was added to each well, than the cells were incubated for an additional 3–4 hrs at 37°C. After centrifugation (200 × g, 10 min.), the medium with MTT was aspirated, followed by the addition of 100 μl DMSO. The optical density of each well was measured at 570 nm with a Biotek Synergy TM HT Reader.

rh-procaspase-3 [1] = biological target: T1, rh-procaspase-3 (Homo sapiens, UniProt P42574); assay: Caspase-3 activation assay (procaspase-3 activation in vitro); format: biochemical; conditions: rh-procaspase-3, concentrations 0.08–100 μM
T1 construct: purchased R&D System (Minneapolis, USA)
T1 sequence (P42574 1-277): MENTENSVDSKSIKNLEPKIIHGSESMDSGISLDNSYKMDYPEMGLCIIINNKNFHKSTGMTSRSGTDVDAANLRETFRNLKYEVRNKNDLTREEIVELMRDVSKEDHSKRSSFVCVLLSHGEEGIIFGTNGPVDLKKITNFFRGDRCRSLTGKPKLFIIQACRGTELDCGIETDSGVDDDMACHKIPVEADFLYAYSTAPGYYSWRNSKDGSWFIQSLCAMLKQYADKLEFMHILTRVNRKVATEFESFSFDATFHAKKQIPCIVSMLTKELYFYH
Protocol: Procaspase-3 protein was purchased from R&D System (Minneapolis, USA). Procaspase-3 protein was added into 384-well plates. Tested compounds (or DMSO as control) were then added to achieve a final concentration of procaspase-3 of 50 ng/ml. Each plate was incubated for 2 hrs at 37°C. Then caspase-3 peptide substrate (acetyl Asp-Glu-Val-Asp-[…] (Ac-DEVD-pNa), 200 μM) were added. The absorbance of each well was measured at 405 nm in kinetic mode for 10 min [13].

human normal cells = assay: MTT cytotoxicity in human normal cells; format: cell-based
Source text: Human malignant cell lines, A549, Colo-205, DU145, NCI-H226, Hep-3B, Hep-G2, K562, MCF-7, U-87, GBC-SD, MDA-MB-435S, PC-3, U-937, HL60, SH-SY5Y and human normal cell lines, MCF-10A and L-02, HUVEC were obtained from the American Type Culture Collection (Manassas, VA, USA) and National Center for Medical Culture Collection (Shanghai, China). They were routinely cultured in RPMI 1640, DMEM or DMEM/F12 (Gibco, New York, USA) supplemented with 10% foetal bovine serum (Gibco, New York, USA) and maintained at 37°C in a humidified incubator with 5% CO2.
Human peripheral blood lymphocytes were obtained as described previously. In brief, after diluting blood with PBS, lymphocytes were isolated by centrifugation over a density gradient of lymphocytes extracting solution for 15 min. at 280 × g. The cells were harvested, washed with PBS twice, and suspended in complete RPMI 1640 (Gibco, New York, USA) with 10% foetal bovine serum (Gibco, New York, USA).
The cell viability effects of the tested compounds were determined by MTT assay. Cells (1 × 10^4 cells/100 μl/well) were seeded into 96-well culture plates. After overnight incubation, cells were treated with various concentrations of compounds for 72 hrs. […] The optical density of each well was measured at 570 nm with a Biotek Synergy TM HT Reader.

XIAP and survivin mRNA = assay: Quantitative PCR of XIAP and survivin mRNA; format: cell-based, human; conditions: real-time PCR, different concentrations
Protocol: About 1 × 10^6 cells were gathered after pre-treatment with PAC-1 or WF-208 as described previously. Total RNA was isolated using RNeasy Mini Kit (Qiagen, Duesseldorf, Germany) as described by the product’s instruction. One microgram of RNA was reversely transcribed with ReverAid First Stand cDNA Sythesis Kit (Thermo Fisher, Rockford, USA). For quantitative PCR, analysis was carried out by using iQ SYBR Green Supermix (Bio-Rad, West Berkeley, USA) and the CFX96 RT-PCR Detection System (Bio-Rad) as instructed by the manufacturer. Primers were GAPDH reverse primer 5′-[…]-3′ and forward primer 5′-TTGCCGACAGGATGCAGAA-3′; XIAP reverse primer 5′-TTGCCGACAGGATGCAGAA-3′ and forward primer 5′-[…]-3′; Survivin reverse primer 5′-GGAAACTGCGGAGAAAGTG-3′ and forward primer 5′-TAAACCCTGGAAGTGGTGC-3′. The PCR cycle started with 5 min. at 95°C, followed by 35 cycles of 3 steps (30 sec. at 95°C, 25 sec. at 56°C, 20 sec. at 72°C). The result was calculated as 2^−ΔΔCt of real-time fluorescence intensity.

rh-procaspase-3 [2] = biological target: T1, rh-procaspase-3; assay: Assay of zinc inhibition of procaspase-3 activation; format: biochemical; conditions: PC3 + 5 μM ZnSO4; read-out: EC50 of procaspase-3 activation in zinc-containing buffer
Protocol: HEPES buffer [with 50 mM HEPES and 300 mM NaCl (pH 7.4)] was treated with Chelex resin to remove trace bivalent cations (including zinc ion). ZnSO4 and different concentration PAC-1 or WF-208 was added to procaspase-3 in HEPES to yield a final concentration of 0.5 μM procaspase-3. After 12 hrs of incubation at 37°C, Ac-DEVD-pNA in buffer [50 mM Hepes (pH 7.4), 100 mM NaCl, 10 mM DTT, 0.1 mM EDTA disodium salt, 0.10% Chaps, 10% glycerol] was added. The final concentration Ac-DEVD-pNA is 0.4 μM. Then the plate was read absorbance at 405 nm in kinetic mode for 10 min. On the other hand, after various time of incubation at 37°C, western blotting was used to detect the cleavage of procaspase-3 [13],[14].

[3] = system: mouse primary cortical cell; assay: Cytotoxicity in mouse primary cortical neuron cells; format: cell-based; conditions: neurotoxicity
Protocol: as §1

HL-60 cells = assay: Immunofluorescence of cleaved caspase-3; format: cell-based, human; conditions: 10 μM, 24 hrs
Protocol: HL-60 cells were treated with the 50 μM of PAC-1 and 10 μM WF-208 for 0.5, 1, 3, 6, 12 and 24 hrs. After such treatment, cells were fixed in 4% paraformaldehyde for 15 min., washed with PBS. Subsequently, cells were blocked with 10% bovine serum albumin (BSA) and Triton X-100 for 1 hr at room temperature and incubated at 4°C overnight with anti-cleaved caspase-3 rabbit mAb (1:100) diluted in 1% BSA. After three times of washing with PBS, cells were incubated with secondary antibody (FITC-conjugated goat anti-rabbit IgG, 1:200) for 1 hr at room temperature. Hoechst 33342 was used as a double staining for the nucleus. After washing with PBS, digital images of the cells captured under with ImageXpress 5000 (Molecular Devices, Sunnyvale, CA, USA). The images were quantified and analysed by using MetaXpress software (Molecular Devices). Cleaved caspase-3 level was expressed as the percentage of positively FITC-stained cells.

Compound: O=C(CN1CCN(Cc2nc(-c3ccc(COc4ccc(Cl)cc4)cc3)no2)CC1)N/N=C/c1ccc(OCc2csc(Cc3ccc4c(c3)OCO4)n2)cc1O [C2]
- IC50 (HL-60 cell line): 0.08 µM
- EC50 (rh-procaspase-3 [1]): 0.56 µM
- IC50 (human normal cells; Figure 3 panel D, read-out: Mean (IC50) of human normal cells): 348 µM
- IC50 (human normal cells; text b44, read-out: mean IC50 value on three different normal cells): 216 µM
- XIAP and survivin mRNA (XIAP and survivin mRNA): failed to change
- EC50 (rh-procaspase-3 [2]): 2.49 µM
- IC50 [3]: 96.2 µM
- cells with procaspase-3 cleaved (HL-60 cells): more than 60%
